Numbers after ± are expanded uncertainties.
Assay: xn = mol fraction of the nth substance listed
Settings: 100 kPa, Liquid; for speed of sound: Frequency=5 MHz, Pulse-echo method; for mass density: Vibrating tube method

OCCCCCO [1,5-pentanediol] + O
Settings	mass density [kg/m3]	speed of sound [m/s]
308.15 K, x1 = 0.005	993.57 ± 0.52	–
308.15 K, x1 = 0.0101	993.45 ± 1	–
308.15 K, x1 = 0.0196	993.6 ± 1	–
308.15 K, x1 = 0.0251	993.93 ± 1	–
308.15 K, x1 = 0.0304	994.32 ± 1	–
308.15 K, x1 = 0.05	995.28 ± 1	–
308.15 K, x1 = 0.0769	995.98 ± 1	–
308.15 K, x1 = 0.0798	–	1647 ± 1.2
308.15 K, x1 = 0.0835	–	1649.2 ± 1.2
308.15 K, x1 = 0.0879	–	1651.5 ± 1.2
308.15 K, x1 = 0.0918	–	1653.4 ± 1.2
308.15 K, x1 = 0.0964	–	1655.5 ± 1.2
308.15 K, x1 = 0.1002	996.54 ± 1.1	1657 ± 1.2
308.15 K, x1 = 0.106	–	1659 ± 1.2
308.15 K, x1 = 0.1116	–	1660.7 ± 1.2
308.15 K, x1 = 0.1172	–	1662.1 ± 1.2
308.15 K, x1 = 0.1233	–	1663.4 ± 1.2
308.15 K, x1 = 0.131	–	1664.8 ± 1.2
308.15 K, x1 = 0.1377	–	1665.7 ± 1.2
308.15 K, x1 = 0.1435	–	1666.3 ± 1.2
308.15 K, x1 = 0.1438	996.71 ± 1.1	–
308.15 K, x1 = 0.1514	–	1666.9 ± 1.3
308.15 K, x1 = 0.161	–	1667.4 ± 1.3
308.15 K, x1 = 0.1675	–	1667.5 ± 1.3
308.15 K, x1 = 0.1737	–	1667.6 ± 1.3
308.15 K, x1 = 0.1787	–	1667.6 ± 1.3
308.15 K, x1 = 0.1838	–	1667.5 ± 1.3
308.15 K, x1 = 0.1845	996.26 ± 1.1	–
308.15 K, x1 = 0.1893	–	1667.4 ± 1.3
308.15 K, x1 = 0.1953	–	1667.2 ± 1.3
308.15 K, x1 = 0.2011	–	1667 ± 1.3
308.15 K, x1 = 0.2239	–	1665.8 ± 1.3
308.15 K, x1 = 0.2306	–	1665.4 ± 1.3
308.15 K, x1 = 0.2378	–	1664.9 ± 1.3
308.15 K, x1 = 0.2491	–	1664 ± 1.3
308.15 K, x1 = 0.2503	995.17 ± 1.2	–
308.15 K, x1 = 0.2581	–	1663.3 ± 1.3
308.15 K, x1 = 0.2683	–	1662.5 ± 1.4
308.15 K, x1 = 0.2832	–	1661.2 ± 1.4
308.15 K, x1 = 0.3	994.06 ± 1.2	–
308.15 K, x1 = 0.3005	–	1659.5 ± 1.4
308.15 K, x1 = 0.3223	–	1657.4 ± 1.4
308.15 K, x1 = 0.3343	993.37 ± 1.3	–
308.15 K, x1 = 0.3402	–	1655.5 ± 1.4
308.15 K, x1 = 0.3515	–	1654.3 ± 1.4
308.15 K, x1 = 0.3735	–	1651.8 ± 1.5
308.15 K, x1 = 0.3924	–	1649.6 ± 1.5
308.15 K, x1 = 0.4062	–	1647.9 ± 1.5
308.15 K, x1 = 0.4171	991.68 ± 1.4	–
308.15 K, x1 = 0.4304	–	1644.9 ± 1.5
308.15 K, x1 = 0.4462	–	1642.8 ± 1.5
308.15 K, x1 = 0.454	990.78 ± 1.4	–
308.15 K, x1 = 0.4661	–	1640.2 ± 1.6
308.15 K, x1 = 0.4803	–	1638.3 ± 1.6
308.15 K, x1 = 0.4957	–	1636.1 ± 1.6
308.15 K, x1 = 0.5003	989.8 ± 1.5	–
308.15 K, x1 = 0.5119	–	1633.9 ± 1.6
308.15 K, x1 = 0.5238	–	1632.2 ± 1.6
308.15 K, x1 = 0.5362	989.1 ± 1.5	–
308.15 K, x1 = 0.5406	–	1629.8 ± 1.6
308.15 K, x1 = 0.5482	–	1628.7 ± 1.7
308.15 K, x1 = 0.5622	–	1626.7 ± 1.7
308.15 K, x1 = 0.5848	–	1623.5 ± 1.7
308.15 K, x1 = 0.6035	–	1620.8 ± 1.7
308.15 K, x1 = 0.6177	987.6 ± 1.7	–
308.15 K, x1 = 0.6216	–	1618.2 ± 1.8
308.15 K, x1 = 0.6446	–	1615 ± 1.8
308.15 K, x1 = 0.6478	987 ± 1.7	–
308.15 K, x1 = 0.6646	–	1612.2 ± 1.8
308.15 K, x1 = 0.6864	–	1609.3 ± 1.8
308.15 K, x1 = 0.7025	986.1 ± 1.8	–
308.15 K, x1 = 0.7086	–	1606.4 ± 1.9
308.15 K, x1 = 0.7293	–	1603.7 ± 1.9
308.15 K, x1 = 0.7497	–	1601.1 ± 1.9
308.15 K, x1 = 0.7504	985.3 ± 1.9	–
308.15 K, x1 = 0.7689	–	1598.8 ± 2
308.15 K, x1 = 0.7904	–	1596.2 ± 2
308.15 K, x1 = 0.7927	984.6 ± 2	–
308.15 K, x1 = 0.8099	–	1593.9 ± 2
308.15 K, x1 = 0.8308	–	1591.5 ± 2
308.15 K, x1 = 0.8561	–	1588.6 ± 2.1
308.15 K, x1 = 0.8605	983.4 ± 2.1	–
308.15 K, x1 = 0.8812	–	1585.8 ± 2.1
308.15 K, x1 = 0.9004	982.7 ± 2.2	–
308.15 K, x1 = 0.9098	–	1582.5 ± 2.2
308.15 K, x1 = 0.9326	–	1579.9 ± 2.2
308.15 K, x1 = 0.9496	981.7 ± 2.3	–
308.15 K, x1 = 0.9519	–	1577.5 ± 2.2
308.15 K, x1 = 0.9707	–	1575.2 ± 2.3
308.15 K, x1 = 0.9812	–	1573.8 ± 2.3
308.15 K, x1 = 0.9864	–	1573.2 ± 2.3
308.15 K, x1 = 0.9944	–	1572.1 ± 2.3
308.15 K, x1 = 1	980.7 ± 2.1	1571.3 ± 2.3
313.15 K, x1 = 0.0002	–	1529.3 ± 1.2
313.15 K, x1 = 0.0004	–	1529.9 ± 1.2
313.15 K, x1 = 0.0006	–	1530.6 ± 1.2
313.15 K, x1 = 0.0009	–	1531.5 ± 1.2
313.15 K, x1 = 0.0013	–	1532.4 ± 1.2
313.15 K, x1 = 0.0016	–	1533.4 ± 1.2
313.15 K, x1 = 0.002	–	1534.5 ± 1.2
313.15 K, x1 = 0.0025	–	1535.9 ± 1.2
313.15 K, x1 = 0.0032	–	1537.6 ± 1.2
313.15 K, x1 = 0.0039	–	1539.6 ± 1.2
313.15 K, x1 = 0.0045	–	1541.2 ± 1.2
313.15 K, x1 = 0.0052	–	1542.9 ± 1.2
313.15 K, x1 = 0.0058	–	1544.6 ± 1.2
313.15 K, x1 = 0.0065	–	1546.5 ± 1.2
313.15 K, x1 = 0.0073	–	1548.3 ± 1.2
313.15 K, x1 = 0.0081	–	1550.4 ± 1.2
313.15 K, x1 = 0.0088	–	1552.1 ± 1.2
313.15 K, x1 = 0.0097	–	1554.2 ± 1.2
313.15 K, x1 = 0.0107	–	1556.6 ± 1.2
313.15 K, x1 = 0.0118	–	1559 ± 1.2
313.15 K, x1 = 0.013	–	1561.7 ± 1.2
313.15 K, x1 = 0.0142	–	1564.4 ± 1.2
313.15 K, x1 = 0.0153	–	1566.8 ± 1.2
313.15 K, x1 = 0.0164	–	1569.2 ± 1.2
313.15 K, x1 = 0.0176	–	1571.6 ± 1.2
313.15 K, x1 = 0.0187	–	1573.8 ± 1.2
313.15 K, x1 = 0.02	–	1576.4 ± 1.2
313.15 K, x1 = 0.0214	–	1579 ± 1.2
313.15 K, x1 = 0.0227	–	1581.5 ± 1.2
313.15 K, x1 = 0.0243	–	1584.4 ± 1.2
313.15 K, x1 = 0.0259	–	1587.2 ± 1.2
313.15 K, x1 = 0.0276	–	1590 ± 1.2
313.15 K, x1 = 0.0293	–	1592.8 ± 1.2
313.15 K, x1 = 0.0308	–	1595.3 ± 1.2
313.15 K, x1 = 0.0322	–	1597.4 ± 1.2
313.15 K, x1 = 0.0341	–	1600.2 ± 1.2
313.15 K, x1 = 0.036	–	1602.9 ± 1.2
313.15 K, x1 = 0.0378	–	1605.4 ± 1.2
313.15 K, x1 = 0.0395	–	1607.7 ± 1.2
313.15 K, x1 = 0.0417	–	1610.5 ± 1.2
313.15 K, x1 = 0.0441	–	1613.4 ± 1.2
313.15 K, x1 = 0.0462	–	1615.8 ± 1.2
313.15 K, x1 = 0.0486	–	1618.4 ± 1.2
313.15 K, x1 = 0.0505	–	1620.4 ± 1.2
313.15 K, x1 = 0.0522	–	1622.1 ± 1.2
313.15 K, x1 = 0.0542	–	1624.1 ± 1.2
313.15 K, x1 = 0.0571	–	1626.6 ± 1.2
313.15 K, x1 = 0.0588	–	1628.1 ± 1.2
313.15 K, x1 = 0.0608	–	1629.8 ± 1.2
313.15 K, x1 = 0.0624	–	1631.2 ± 1.2
313.15 K, x1 = 0.0648	–	1632.9 ± 1.2
313.15 K, x1 = 0.0682	–	1635.4 ± 1.2
313.15 K, x1 = 0.0705	–	1636.9 ± 1.2
313.15 K, x1 = 0.0732	–	1638.6 ± 1.2
313.15 K, x1 = 0.0767	–	1640.7 ± 1.2
313.15 K, x1 = 0.0802	–	1642.6 ± 1.2
313.15 K, x1 = 0.0837	–	1644.2 ± 1.2
313.15 K, x1 = 0.0875	–	1646 ± 1.2
313.15 K, x1 = 0.0918	–	1647.7 ± 1.2
313.15 K, x1 = 0.0975	–	1649.7 ± 1.2
313.15 K, x1 = 0.1013	–	1650.9 ± 1.2
313.15 K, x1 = 0.106	–	1652.2 ± 1.2
313.15 K, x1 = 0.1096	–	1653 ± 1.2

— the NIST ThermoML archive (doi:10.1016/j.jct.2017.06.001)
